The data set in a line: gradient 5% acetonitrile 3 min, to 50% in 2 min, to 85% in 15 min, held 3 min, 100 µL/min. The note with it: column: Zorbax Extend-C18 2.1 x 50 mm; eluents: water / acetonitrile, 0.1% formic acid. In a few lines: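 Pure standards were run in mixtures of ~100 molecules by HPLC coupled to a quadrupole time-of-flight mass spectrometer. The column was a Zorbax Extend-C18 (2.1 × 50 mm, 1.8 μm) at 100 μL/min, with water and acetonitrile each containing 0.1% formic acid, in positive and negative ionization mode. Dead and dwell volumes were 40 μL and 900 μL. Retention time was taken from computationally picked adduct peaks, each manually inspected, with data collected over 3 months.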
As for `COC(=O)c1cc(S(=O)(=O)N2CCCC2C(=O)NCc2ccccc2C)cn1C` (centres undefined), the RP-LC retention time stood at 846 s.
The figure for `Cn1c(=O)sc2cc(S(=O)(=O)N3CCC(C(=O)Nc4cccc(F)c4)CC3)ccc21` is 885 s; for `O=S(=O)(c1cccc(-c2cn3ccccc3n2)c1)N1CCCC1` it is 607 s.
Regarding `O=C(c1cccc(Br)c1)N1CCN(c2cc(-c3cccs3)[nH]n2)CC1`, the RP-LC retention time was 837 s.
The figure for `COC(=O)c1ccc(NC(=O)c2cc(C(C)(C)C)n3nccc3n2)cc1` is 865 s; for `O=C(NCc1csc(-c2ccccc2)n1)[C@H]1CCCN1C(=O)c1cccc(Br)c1` it is 889 s.
The figure for `O=C1CCc2cc(S(=O)(=O)NCc3ccco3)cc3c2N1CCC3` is 677 s; for `CCC(=O)N1CCc2c(C(=O)NC3CCCCC3)cccc21` it is 831 s.
In turn, `COCCCNS(=O)(=O)c1ccccc1-c1nc(-c2ccc(F)cc2)no1` returned an RP-LC retention time of 905 s.
To `N#CCN(c1ccc2c(c1)OCCO2)S(=O)(=O)c1ccc2nncn2c1` belongs 690 s; to `Clc1cccc(CN2CCN(c3cnn4c(C5CC5)nnc4c3)CC2)c1`, 750 s.
As to `COc1cc(N2C=C(C(=O)N3CCCC3)S(=O)(=O)c3ccccc32)cc(OC)c1OC`, the RP-LC retention time came to 753 s.
As to `COc1ccc(C)cc1Nc1nc(N)nc(CN2CCN(c3ccccn3)CC2)n1`, the RP-LC retention time turned out to be 606 s.
`Nc1nc(Cl)nc2c1ncn2[C@@H]1O[C@H](CO)[C@@H](O)[C@@H]1F` gave an RP-LC retention time of 600 s.
`CCOc1ccc(C(=O)Nc2cccnc2)nn1` registered an RP-LC retention time of 552 s.
To `O=C(Nc1cc(-c2ccco2)nn1CCO)c1ccc(S(=O)(=O)N2CCOCC2)cc1` belongs 622 s.
The figure for `COc1ccc(-c2nc3ccccn3c2NC(=O)c2ccc([N+](=O)[O-])cc2)cc1` is 662 s; for `COc1ccc(N2C=C(C(=O)N3CCOCC3)S(=O)(=O)c3ccccc32)cc1Cl` it is 789 s; for `O=C1NCCCCCN(C(=O)c2ccc(Cn3cncn3)o2)[C@H]2CCC[C@@H]12` it is 608 s.
To `O=C(Cn1nc2c3cc(-c4ccccc4)nn3ccn2c1=O)NC1CCCC1` belongs 796 s; to `O=S(=O)(Cc1ccccc1F)N1CC(c2nc(CCOCc3ccccc3)no2)C1`, 1010 s.
On to `CC1CCCN(c2ccn3c(=O)n(CC(=O)NCc4ccc(F)cc4F)nc3n2)C1` (centres undefined), for which the RP-LC retention time was 772 s.
The figure for `Cc1cccc(-c2nnc(Cc3nc(C(C)(C)C)no3)o2)c1` is 1000 s.
The figure for `CCOCCCNC(=O)C1Cn2cccc2C(=O)N1` (centres undefined) is 592 s; for `CC(=O)Nc1ccc(NC(=O)c2nc3ccccn3c2-c2ccc(Cl)cc2)cc1` it is 855 s.
To `CCCOc1nc2ccccc2nc1N1CCCC(C(=O)Nc2ccc(OC)cc2OC)C1` (centres undefined) belongs 1280 s.
Molecule `CCOC(=O)c1ccc(NC(=O)c2cc3c(=O)n(CC(C)C)c4ccccc4n3n2)cc1` displayed an RP-LC retention time of 750 s.
The figure for `O=C(NCCc1nc(-c2ccc3c(c2)OCO3)n[nH]1)c1ccc(F)c(Cl)c1` is 743 s; for `Cc1nn2c(CNC(=O)c3cccnc3)c(-c3ccccc3)nc2s1` it is 655 s; for `COCc1nc(-c2ccc(OC3CNC3)cc2)no1` it is 578 s.
To `COc1ccc(OC)c(S(=O)(=O)NCCc2ncc(C)n2C(C)C)c1` belongs 540 s; to `COc1ccc(CCNC(=O)CSC2=Nc3ccc(C)cc3OC2)cc1OC`, 750 s; to `CC(C)Cn1cc(S(=O)(=O)NCc2cccc(Cl)c2)c2cccnc21`, 1020 s.
To `CC(=O)Nc1ccc(C(=O)NC(C(=O)N2CCCc3ccccc32)c2ccccc2)cc1` (centres undefined) belongs 850 s.
Regarding `O=C(CCCCCCC(=O)Nc1ccc(F)cc1)NO`, the RP-LC retention time was found to be 628 s.
The molecule `COc1cccc(Cn2c(=O)c3sccc3n(Cc3nc(-c4ccc(Cl)c(F)c4)no3)c2=O)c1` had an RP-LC retention time of 1180 s.
The figure for `O=C(c1ccc(Cl)s1)N1CC(F)(F)C[C@H]1COc1cccnc1` is 731 s; for `CC(C)n1cnc(S(=O)(=O)N2CCCC(C(=O)Nc3ccc(Br)cc3F)C2)c1` (centres undefined) it is 893 s.
The molecule `Cc1noc(C)c1CNC(=O)c1cc(-c2ccccc2)n[nH]1` yielded an RP-LC retention time of 706 s.
The figure for `Cc1ccc(-c2csc(NC(=O)c3sc(-c4ccccc4)nc3C)n2)cc1C` is 1390 s.
Molecule `Cc1ccc(-c2noc(Cn3cnc4c(cnn4-c4ccc(C(C)C)cc4)c3=O)n2)cc1` came in with an RP-LC retention time of 1300 s.
To `COc1ccccc1N1CCN(c2cc(SCC(=O)Nc3c(C)cc(C)cc3C)ncn2)CC1` belongs 1040 s; to `Cc1nc(-c2cc(S(=O)(=O)N3CCN(c4cccc(C)c4C)CC3)c(C)s2)cs1`, 1370 s; to `O=C1CC(c2noc(-c3cccc(F)c3)n2)CN1c1ccc(Cl)cc1` (centres undefined), 1080 s.
For the molecule `Cc1ccc(-c2noc(-c3ccc(N4CCN(Cc5ccc6c(c5)OCO6)CC4)nc3)n2)cc1`, the RP-LC retention time is 874 s.
To `O=C(Cc1ccc(F)cc1)Nc1nc(-c2ccccc2)cs1` belongs 988 s.
In the case of `COc1cccc(C2NC(=O)NC(C)=C2C(=O)OC2CCCCCC2)c1OC` (centres undefined), the RP-LC retention time stood at 971 s.
The figure for `COc1cccc(CNC(=O)C2(C)CCCN(C(=O)Nc3cc(Cl)c(OC)cc3OC)C2)c1` (centres undefined) is 900 s; for `O=c1ccc(-c2ccc(Cl)cc2)nn1CCc1nc(-c2ccc3c(c2)OCO3)no1` it is 1040 s.
`O=C(COC(=O)c1cccc([N+](=O)[O-])c1)c1ccc(NC(=O)c2ccccc2)cc1` registered an RP-LC retention time of 921 s.
The figure for `CC(C)NC(=O)C1CCCN(S(=O)(=O)c2c[nH]c(C(=O)N3CCCCCC3)c2)C1` (centres undefined) is 734 s; for `Cc1c(O)ccc2c1oc(=O)c1ccccc12` it is 808 s.
To `COc1ccc(OC)c2sc(NC(=O)c3ccc(Cl)s3)nc12` belongs 990 s; to `Cc1ccc(C)c(C(=O)CC2(O)C(=O)N(C)c3ccccc32)c1` (centres undefined), 818 s.
The figure for `CCCn1cc2c3c(cccc31)CN(C(=O)Nc1cccc(C)c1)CC2` is 1070 s; for `O=C(Nc1nnc(C2CCCCC2)s1)C1CCN(C(=O)c2ccccc2)CC1` it is 789 s.
On to `CCc1ccccc1NC(=O)Nc1ccc2nnc(C)n2c1`, for which the RP-LC retention time is 712 s.
As for `O=C(Nc1ccc(Br)cc1F)C1CCCN(c2cnc3ccccc3n2)C1` (centres undefined), the RP-LC retention time stood at 1070 s.
The figure for `CCC(=O)Nc1c(C(=O)NC)oc2ccccc12` is 712 s.

For the origin of these results see the METLIN SMRT retention time set (Domingo-Almenara et al. 2019).
